Assay results: paper PMC6718736, “Validation of in vitro methods for human cytochrome P450 enzyme induction: Outcome of a multi-laboratory study” (Toxicology in Vitro, 2019)
Where two headings read alike, the source gives them in different places.

What was measured:
CYP = CYP isoforms induced; ref Abadie et al. (2009), Richert et al. (2010), Preissner et al. (2010), Hoffmann et al. (2014); cited from earlier work
CYP2B6 = CYP2B6 enzyme induction assay in cryopreserved primary human hepatocytes (PHH); format: in vitro ADME; conditions: for Assigned classification CYP2B6: PHH;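 on Assigned classification CYP2B6: code 1 means positive inducer and 0 means non-inducer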
CYP3A4 [1] = tested on: CYP3A4
CYP1A2 [2] = conditions: cited from earlier work
[3] = cited from earlier work
CYP3A4 [4] = conditions: in vivo; cited from earlier work
[5] = Solubility by nephelometry (EURL ECVAM); format: physicochemical; conditions: ECVAM nephelometry, ^2 = solubility limit
Excerpt: In addition to the visual inspection performed by the validation laboratories as described in the SOP, EURL ECVAM introduced nephelometry for systematic solubility determination of the 13 validation set chemicals. Nephelometry uses a laser beam and the principle of Tyndall effect light scatter to detect turbidity due to insolubility. The nephelometer method used formazin as reference item (1, 5, 10 and 20 nephelometric turbidity units (NTU)) to calculate the relative turbidity (RTU) of the validation set of chemicals. To the naked eye, 20 NTU is perceptible, while the nephelometer was sensitive to 5 NTU, with 1 NTU equivalent to background (solvent/medium blank).

[6] = Solubility by visual inspection (DMSO stock solution and assay medium); format: physicochemical; conditions: assay medium
Method: The SOPs relied on visual inspection for solubility observation. […] The absence of precipitation in the medium was checked pre- and post-incubation (24 hours) by centrifugation of the sample and observation of any precipitation (pellet residue).

CYP1A2 [7] = test: CYP1A2 enzyme induction assay in cryopreserved primary human hepatocytes (PHH); format: in vitro ADME; conditions: for Assigned classification CYP1A2: PHH;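 on Assigned classification CYP1A2: code 1 means positive inducer and 0 means non-inducer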

Structure (SMILES): CO[C@H]1/C=C/O[C@@]2(C)Oc3c(C)c(O)c4c(c3C2=O)C2=NC3(CCN(CC(C)C)CC3)NC2=C(NC(=O)/C(C)=C\C=C\[C@H](C)[C@H](O)[C@@H](C)[C@@H](O)[C@@H](C)[C@H](OC(C)=O)[C@@H]1C)C4=O [Rifabutin]
- CYP induction in vitro (human hepatocytes) (CYP): CYP1A2, CYP3A4
- F2 (CYP2B6; CYP2B6, PHH): 0.29 to 0.87 µM
- Induction in vitro (CYP2B6; CYP2B6, PHH): induced CYP2B6 and Yes
- Prediction in vivo inducer (CYP2B6; CYP2B6, PHH): Yes
- Assigned classification CYP2B6 (CYP2B6; Lab 1, batch 0 6 A): 1
- Assigned classification CYP2B6 (CYP2B6; Lab 1, batch 4 0 8): 0
- Assigned classification CYP2B6 (CYP2B6; Lab 1, batch 8 0 8): 1
- Assigned classification CYP2B6 (CYP2B6; Lab 2, batch 0 6 A): 0
- Assigned classification CYP2B6 (CYP2B6; Lab 2, batch 4 0 8): 0
- Assigned classification CYP2B6 (CYP2B6; Lab 2, batch 8 0 8): 1
- Assigned classification CYP2B6 (CYP2B6; Lab 3, batch 0 6 A): 1
- Assigned classification CYP2B6 (CYP2B6; Lab 3, batch 4 0 8): 1
- Assigned classification CYP2B6 (CYP2B6; Lab 3, batch 8 0 8): 1
- Induction in vitro (CYP3A4 [1]): Yes
- Prediction in vivo inducer (CYP3A4 [1]): Yes
- Summary predictive capacity, CYP3A4 induction (Y/N) (CYP3A4 [1]; hepatocytes): Y
- Cmax/F2 (CYP3A4 [1]; human): 4.4
- F2 (CYP3A4 [1]; human): 0.1 µM
- Induction in vivo (CYP1A2 [2]; CYP1A2, human, ref Table 1): No
- CYP induction in vivo literature reference: CYP1A2 (CYP1A2 [2]; human in vivo, CYP named without remark = induced, ref references in the cell, Washington University database, Hoffmann et al. (2014), Pelkonen et al. (2008), Hukkanen et al. (2012)): CYP1A2 NOT induced ([Gillum et al., 1996]) CYP2B6 NO studies CYP3A4 ([Horita and Doi, 2014]; [Barditch-Crovo et al., 1999])
- Cmax ([3]; human in vivo plasma concentration, normal dose): 0.44 µM
- Cmax ([3]; human in vivo, normal dose (Table 10)): 0.44 µM
- CYP induction in vivo literature reference: CYP3A4 (CYP3A4 [4]): CYP1A2 NOT induced ([Gillum et al., 1996]) CYP2B6 NO studies CYP3A4 ([Horita and Doi, 2014]; [Barditch-Crovo et al., 1999])
- Induction in vivo (CYP3A4 [4]): Yes
- HepaRG medium stability ([5]; HepaRG medium): 40 µg/mL
- PHH medium stability ([5]; PHH medium): 40 µg/mL
- HepaRG medium stability ([6]; Lab 1, visual observation): 40 µg/mL
- HepaRG medium stability ([6]; Lab 2, visual observation): 20 µg/mL
- HepaRG medium stability ([6]; Lab 3, visual observation): 40 µg/mL
- PHH medium stability ([6]; Lab 4, visual observation): 40 µg/mL
- PHH medium stability ([6]; Lab 5, visual observation): 40 µg/mL
- PHH medium stability ([6]; Lab 6, visual observation): 40 µg/mL
- Prediction in vivo inducer (CYP1A2 [7]; CYP1A2, PHH, Cmax/F2 >0.5 criterion): No
- F2 (CYP1A2 [7]; CYP1A2, PHH, in vitro concentration producing 2-fold induction): 2.2 to 6.7 µM
- Induction in vitro (CYP1A2 [7]; CYP1A2, PHH, positive in one donor in each of the three laboratories): Yes
- Assigned classification CYP1A2 (CYP1A2 [7]; Lab 1, batch 0 6 A): 1
- Assigned classification CYP1A2 (CYP1A2 [7]; Lab 1, batch 4 0 8): 1
- Assigned classification CYP1A2 (CYP1A2 [7]; Lab 1, batch 8 0 8): 0
- Assigned classification CYP1A2 (CYP1A2 [7]; Lab 2, batch 0 6 A): 0
- Assigned classification CYP1A2 (CYP1A2 [7]; Lab 2, batch 4 0 8): 0
- Assigned classification CYP1A2 (CYP1A2 [7]; Lab 2, batch 8 0 8): 1
- Assigned classification CYP1A2 (CYP1A2 [7]; Lab 3, batch 0 6 A): 1
- Assigned classification CYP1A2 (CYP1A2 [7]; Lab 3, batch 4 0 8): 0
- Assigned classification CYP1A2 (CYP1A2 [7]; Lab 3, batch 8 0 8): 0
